Experimental data from PubChem BioAssay (NCI).
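1) Cells in 96-well plates. 2) Compound, 48 h, 5 concentrations. 3) Linear interpolation between surrounding doses. 4) Unreached endpoint = highest concentration. The concentration for full growth arrest is given as TGI.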

How the values were obtained:
Assay in all cases: NCI anticancer screen, dose series, 48 h
786-0 renal = test system: 786-0 renal
A498 renal = test system: A498 renal
A549 NSCLC = test system: A549 NSCLC
ACHN renal = test system: ACHN renal
BT-549 breast = test system: BT-549 breast
CAKI-1 renal = test system: CAKI-1 renal
CCRF-CEM leukemia = test system: CCRF-CEM leukemia
COLO 205 colon = test system: COLO 205 colon
DU-145 prostate = test system: DU-145 prostate
EKVX NSCLC = test system: EKVX NSCLC
HCC-2998 colon = test system: HCC-2998 colon
HCT-116 colon = test system: HCT-116 colon
HCT-15 colon = test system: HCT-15 colon
HL-60(TB) leukemia = test system: HL-60(TB) leukemia
HOP-62 NSCLC = test system: HOP-62 NSCLC
HS 578T breast = test system: HS 578T breast
HT29 colon = test system: HT29 colon
IGROV1 ovarian = test system: IGROV1 ovarian
K-562 leukemia = test system: K-562 leukemia
KM12 colon = test system: KM12 colon
LOX IMVI melanoma = test system: LOX IMVI melanoma
M14 melanoma = test system: M14 melanoma
MALME-3M melanoma = test system: MALME-3M melanoma
MCF7 breast = test system: MCF7 breast
MDA-MB-231 breast = test system: MDA-MB-231 breast
MDA-MB-435 = test system: MDA-MB-435
MDA-N = test system: MDA-N
MOLT-4 leukemia = test system: MOLT-4 leukemia
NCI-H226 lung = test system: NCI-H226 lung
NCI-H23 lung = test system: NCI-H23 lung
NCI-H460 lung = test system: NCI-H460 lung
NCI-H522 lung = test system: NCI-H522 lung
NCI/ADR-RES ovarian = test system: NCI/ADR-RES ovarian
OVCAR-3 ovarian = test system: OVCAR-3 ovarian
OVCAR-4 ovarian = test system: OVCAR-4 ovarian
OVCAR-5 ovarian = test system: OVCAR-5 ovarian
OVCAR-8 ovarian = test system: OVCAR-8 ovarian
PC-3 prostate = test system: PC-3 prostate
RPMI-8226 leukemia = test system: RPMI-8226 leukemia
RXF 393 renal = test system: RXF 393 renal
SF-268 CNS = test system: SF-268 CNS
SF-295 CNS = test system: SF-295 CNS
SK-MEL-2 melanoma = test system: SK-MEL-2 melanoma
SK-MEL-28 melanoma = test system: SK-MEL-28 melanoma
SK-MEL-5 melanoma = test system: SK-MEL-5 melanoma
SK-OV-3 ovarian = test system: SK-OV-3 ovarian
SN12C renal = test system: SN12C renal
SNB-19 CNS = test system: SNB-19 CNS
SNB-75 CNS = test system: SNB-75 CNS
SR leukemia = test system: SR leukemia
SW-620 colon = test system: SW-620 colon
T-47D breast = test system: T-47D breast
U251 CNS = test system: U251 CNS
UACC-62 melanoma = test system: UACC-62 melanoma
UO-31 renal = test system: UO-31 renal
HOP-92 NSCLC = test system: HOP-92 NSCLC
SF-539 CNS = test system: SF-539 CNS
TK-10 renal = test system: TK-10 renal
UACC-257 melanoma = test system: UACC-257 melanoma

## COC(=O)C1CC2CCC1(O[Si](C(C)C)(C(C)C)C(C)C)C(O)C2 (stereo not given)
786-0 renal
  TGI: 31.5 µM
A498 renal
  TGI: > 100 µM
A549 NSCLC
  TGI: 33.4 µM
ACHN renal
  TGI: 80.4 µM
BT-549 breast
  TGI: 79.3 µM
CAKI-1 renal
  TGI: > 100 µM
CCRF-CEM leukemia
  TGI: > 100 µM
COLO 205 colon
  TGI: 71.2 µM
DU-145 prostate
  TGI: 34.9 µM
EKVX NSCLC
  TGI: 33.6 µM
HCC-2998 colon
  TGI: 46 µM
HCT-116 colon
  TGI: 36.2 µM
HCT-15 colon
  TGI: 30.6 µM
HL-60(TB) leukemia
  TGI: > 100 µM
HOP-62 NSCLC
  TGI: 44.1 µM
HS 578T breast
  TGI: 99.6 µM
HT29 colon
  TGI: 30.2 µM
IGROV1 ovarian
  TGI: 94 µM
K-562 leukemia
  TGI: 28.9 µM
KM12 colon
  TGI: 38.6 µM
LOX IMVI melanoma
  TGI: 27.5 µM
M14 melanoma
  TGI: 32.7 µM
MALME-3M melanoma
  TGI: > 100 µM
MCF7 breast
  TGI: 28.4 µM
MDA-MB-231 breast
  TGI: 38.9 µM
MDA-MB-435
  TGI: 30.9 µM
MDA-N
  TGI: 57.4 µM
MOLT-4 leukemia
  TGI: 30.1 µM
NCI-H226 lung
  TGI: 40.7 µM
NCI-H23 lung
  TGI: 44.9 µM
NCI-H460 lung
  TGI: > 100 µM
NCI-H522 lung
  TGI: 44.7 µM
NCI/ADR-RES ovarian
  TGI: > 100 µM
OVCAR-3 ovarian
  TGI: 39.3 µM
OVCAR-4 ovarian
  TGI: > 100 µM
OVCAR-5 ovarian
  TGI: 27.2 µM
OVCAR-8 ovarian
  TGI: 28.1 µM
PC-3 prostate
  TGI: 47.7 µM
RPMI-8226 leukemia
  TGI: 40.7 µM
RXF 393 renal
  TGI: 28.8 µM
SF-268 CNS
  TGI: 79.2 µM
SF-295 CNS
  TGI: 47.2 µM
SK-MEL-2 melanoma
  TGI: 32.1 µM
SK-MEL-28 melanoma
  TGI: 44.9 µM
SK-MEL-5 melanoma
  TGI: 61.7 µM
SK-OV-3 ovarian
  TGI: > 100 µM
SN12C renal
  TGI: 34.5 µM
SNB-19 CNS
  TGI: 44.2 µM
SNB-75 CNS
  TGI: > 100 µM
SR leukemia
  TGI: 26.6 µM
SW-620 colon
  TGI: 60.8 µM
T-47D breast
  TGI: 76.7 µM
U251 CNS
  TGI: 31.9 µM
UACC-62 melanoma
  TGI: > 100 µM
UO-31 renal
  TGI: 30.2 µM

## CC1OC(OC2C(O)COC(OC3C(C)OC(OC4C(OC(=O)[C@]56CCC(C)(C)C[C@@H]5C5=CCC7[C@@]8(C)C[C@H](O)[C@H](OC9OC(CO)C(O)C(OC%10OC(CO)C(O)C(O)C%10O)C9O)[C@@](C)(CO)[C@@H]8CC[C@@]7(C)[C@]5(C)CC6)OCC(O)C4O)C(O)C3OC3OCC(O)(CO)C3O)C2O)C(O)C(O)C1O (stereo not given in full)
786-0 renal
  TGI: 15.4 µM
A498 renal
  TGI: 20.4 µM
A549 NSCLC
  TGI: 13.9 µM
ACHN renal
  TGI: 19.7 µM
BT-549 breast
  TGI: 13.3 µM
CAKI-1 renal
  TGI: 12.4 µM
CCRF-CEM leukemia
  TGI: 15.4 µM
COLO 205 colon
  TGI: 14.9 µM
DU-145 prostate
  TGI: 16.2 µM
EKVX NSCLC
  TGI: 13.2 µM
HCC-2998 colon
  TGI: 20.8 µM
HCT-116 colon
  TGI: 32.2 µM
HCT-15 colon
  TGI: 19.1 µM
HOP-62 NSCLC
  TGI: 20.7 µM
HOP-92 NSCLC
  TGI: 19.7 µM
HS 578T breast
  TGI: 22.4 µM
K-562 leukemia
  TGI: 50 µM
KM12 colon
  TGI: 26.2 µM
LOX IMVI melanoma
  TGI: 17.8 µM
M14 melanoma
  TGI: 13 µM
MALME-3M melanoma
  TGI: 13.2 µM
MCF7 breast
  TGI: 29.4 µM
MDA-MB-231 breast
  TGI: 16.7 µM
MDA-MB-435
  TGI: 24.4 µM
MDA-N
  TGI: 19.2 µM
MOLT-4 leukemia
  TGI: 30.1 µM
NCI-H226 lung
  TGI: 23.4 µM
NCI-H23 lung
  TGI: 14.3 µM
NCI-H460 lung
  TGI: 36.2 µM
NCI-H522 lung
  TGI: 17.4 µM
NCI/ADR-RES ovarian
  TGI: 16.7 µM
OVCAR-3 ovarian
  TGI: 19.1 µM
OVCAR-4 ovarian
  TGI: 19.5 µM
OVCAR-5 ovarian
  TGI: 17.4 µM
OVCAR-8 ovarian
  TGI: 18.9 µM
PC-3 prostate
  TGI: 13.7 µM
RPMI-8226 leukemia
  TGI: 50 µM
RXF 393 renal
  TGI: 17.2 µM
SF-268 CNS
  TGI: 20.3 µM
SF-295 CNS
  TGI: 18.6 µM
SF-539 CNS
  TGI: 17.5 µM
SK-MEL-28 melanoma
  TGI: 14 µM
SK-MEL-5 melanoma
  TGI: 15.8 µM
SK-OV-3 ovarian
  TGI: 18 µM
SN12C renal
  TGI: 12 µM
SNB-19 CNS
  TGI: 16.6 µM
SNB-75 CNS
  TGI: 21.3 µM
SR leukemia
  TGI: 16 µM
SW-620 colon
  TGI: 15.7 µM
T-47D breast
  TGI: 25 µM
TK-10 renal
  TGI: 22.1 µM
U251 CNS
  TGI: 20.6 µM
UACC-257 melanoma
  TGI: 20.9 µM
UACC-62 melanoma
  TGI: 22.9 µM
UO-31 renal
  TGI: 10.3 µM
